Data on 1 molecule can be found in patent US11369593B2 (Texas Tech University System, priority 2017, dated 2022).

In experiment [1] the test system is PC12 cells. Nature of the experiment: Etoposide-induced apoptosis in PC12 cells, cell viability. Format: cell-based. The note with it: Rattus norvegicus, PC-12, etoposide-induced apoptosis, PC12 cells.
Experiment [2] has as its system PC12 cells. Nature of the experiment: Serum starvation-induced apoptosis in PC12 cells, cell viability. The format is cell-based. The note with it: Rattus norvegicus, PC-12, serum starvation-induced apoptosis, PC12 cells.
Experiment [3] concerns CLN3 siRNA knock down PC12 cells. Nature of the experiment: Protective effect in siRNA CLN3 knock down PC12 cells. Format: cell-based. The note with it: FIG. 3A. The text has this: (§1) FIGS. 3A and 3B show the neuroprotective effect of selected compounds in phenotypic cell lines. In FIG. 3A, the protective effect is shown in siRNA CLN3 knock down PC12 cells. In FIG. 3B the protective effect is shown in wild-type (WT) and CLN3 knock down mouse fibroblasts. Values are represented as mean±SD. *P<0.05, **p<0.01, ***p<0.001 compared to vehicle control, unpaired student t test.
(§2) Protective Effect in Phenotypic Cell Lines. […] The inventors screened a number of compounds in both neuron-like CLN3 siRNA knock down PC12 cells (FIG. 3A) and CLN3 knockdown mouse fibroblasts (FIG. 3B) as phenotypic models of JNCL. […] FIGS. 3A and 3B show the neuroprotective effect of selected compounds in phenotypic cell lines. In FIG. 3A, the protective effect is shown in siRNA CLN3 knock down PC12 cells. In FIG. 3B the protective effect is shown in wild-type (WT) and CLN3 knock down mouse fibroblasts. Values are represented as mean±SD. *P<0.05, **p<0.01, ***p<0.001 compared to vehicle control, unpaired student t test. […] Selected derivatives show greater protective effect than flupirtine in patient lympoblast cells in CLN1, CLN2, CLN3, CLN6 and CLN8 disease (FIGS. 4A to 4E). FIGS. 4A to 4E show the percentage of patient lymphoblast cells (%), using Trypan Blue dye with Flupirtine (20 μM, vehicle %1 EtOH), drug 3 (20 μM, vehicle %1 EtOH), drug 5 (50 μM, vehicle %4 DMSO) or drug 6 (20 μM, vehicle %4 DMSO) at 24 h. CLN1 (FIG. 4A), CLN2 (FIG. 4B), CLN3 (FIG. 4C), CLN6 (FIG. 4D), and CLN8 (FIG. 4E).

The test system of experiment [4] is CLN3 knockdown mouse fibroblasts. As to the kind of experiment: Protective effect in CLN3 knock down mouse fibroblasts. Format: cell-based. The note with it: FIG. 3B.
Source text: as §1, §2

Experiment [5] deals with PC12 cells. As to the kind of experiment: ROS in PC12 cells, CellROX green / DAPI staining after H2O2. Format: cell-based. The note with it: 400 μM H2O2 for 4 hours, FIG. 5A. As to the method:
PC12 cells stained with CellROX and DAPI-blue nuclear stain. Greater intensity of green fluorescence indicates greater levels of ROS. Visualized through a microscope (40× magnification, bar=100 μM).
While flupirtine and retigabine are known antioxidants the inventors have shown (FIGS. 5A and 5B) that neuroprotective derivatives operate by a different mechanism of action. […] PC12 cells stained with CellROX and DAPI-blue nuclear stain. Greater intensity of green fluorescence indicates greater levels of ROS. Visualized through a microscope (40× magnification, bar=100 μM).

A further experiment relates to primary neurons. The note with it: cited from earlier work.
The mark [6] stands for this setting: 3 μM compound, read-out: % Viability 3 μM.
The mark [7] stands for this setting: 10 μM compound, read-out: % Viability 10 μM.
Setting [8] is: 30 μM compound, read-out: % Viability 30 μM.

SMILES strings stand for the structures.

In the experiment on PC12 cells [1] (0.1 μM compound, vehicle 52.1 ± 7.32), `CCOC(=O)Nc1ccc(NCc2ccc(F)cc2)nc1N` [NK-1-4, Ethyl (2-amino-6-((4-fluorobenzyl)amino)pyridin-3-yl)carbamate, reference compound] showed a viability at 0.1 µM of 67 ± 5.88%. This molecule also had a viability at 0.3 µM with PC12 cells [1] (0.3 μM compound) of 64.4 ± 9.35%. For the same molecule, the viability at 1 µM in the experiment on PC12 cells [1] (1 μM compound, read-out: % Viability 1 μM) was 73.2 ± 13.9%; in the experiment with PC12 cells [2] (1 μM compound, vehicle 55.04 ± 8.99, read-out: % Viability 1 μM), 85.4 ± 14%. For the same molecule, the viability at 3 µM with PC12 cells [1] (setting [6]) is 78.1 ± 12.9%; in the experiment on PC12 cells [2] (setting [6]), 82 ± 14.5%. Moreover, the viability at 10 µM with PC12 cells [1] (setting [7]) worked out at 76.9 ± 17.4%; in the experiment with PC12 cells [2] (setting [7]), 81.5 ± 13%. Further, the viability at 30 µM in the experiment with PC12 cells [1] (setting [8]) was 71.3 ± 18%; in the experiment on PC12 cells [2] (setting [8]), 89.9 ± 17.1%. The “protective activity” value in experiment [3] and in experiment [4] was “protective activity” each time. The “amelioration of reactive oxygen species (ROS)” value with PC12 cells [5] is recorded as “do ameliorate ROS”. For the same molecule, in the experiment on primary neurons, the “concentration showing protective activity against Abeta 25-35 apoptotic cell death” value is 1 µg/mL.

What is called viability is a read-out of living cells in per cent, often relative to untreated cells.
